In the assay the test system is MCF7/ADR cells. Description: Cell survival rate assay with doxorubicin. To be noted: no treatment group (no vector). In kind it is cell-based, human. The method, then:
Cells were seeded in a 96-well flat bottom microplate at 1000 cells per well. After 24 hours of incubation, cells were treated with Ad-LacZ and Ad-REIC at 100 MOI in serum free medium for 2 hours, followed by exchange with fresh complete medium. After 48 hours, floating dead cells were removed by medium exchange. Adhering cells were cultured with doxorubicin at various concentrations for 72 hours. At the end of incubation, cell survival rates were measured using CellTiter96 (trademark) Aqueous One Solution Cell Proliferation Assay (Promega Corp.).

As to `COc1cccc2c1C(=O)c1c(O)c3c(c(O)c1C2=O)C[C@@](O)(C(=O)CO)C[C@@H]3O[C@H]1C[C@H](N)[C@H](O)[C@H](C)O1` [doxorubicin], the cell survival % (10 μM doxorubicin) worked out at 88.1%. For the setting “25 μM doxorubicin”, this molecule gave a cell survival rates of 45.9%.

These data come from patent publication US8946173B2, “Cancer cell death inducing agent having effects of potentiating anticancer drug against anticancer-drug-resistant cancer” (Momotaro-Gene Inc., priority 2007, dated 2015).
